Measured values taken from patent US20260103466A1, “PROCESS FOR THE MANUFACTURE OF SALTS AND CRYSTALLINE FORMS OF 1-(8-BROMOPYRIDO[2,3-E][1,2,4]TRIAZOLO[4,3-A]PYRAZIN-4-YL)-NMETHYLAZETIDIN-3-AMINE AND NOVEL CRYSTALLINE FORMS” (JW PHARMACEUTICAL CORPORATION, priority 2022, published 2026).

How the values were obtained:
[1] = Stability towards hydrolysis and pH during processing in aqueous environment; type: physicochemical; conditions: compared to the hydrogen sulfate salt; for Stability towards hydrolysis: processing in aqueous, elevated temperatures at least as high as 50° C.
[2] = Solubility in various solvents; type: physicochemical
[3] = Solid form stability on drying and in water-containing environments; type: physicochemical; conditions: for Stability during gentle drying: polymorphic forms of the methyl sulfate salt
histamine 4 receptor = histamine 4 receptor (Homo sapiens, UniProt Q9H3N8); conditions: cited from earlier work
Sequence of histamine 4 receptor (Q9H3N8 whole entry): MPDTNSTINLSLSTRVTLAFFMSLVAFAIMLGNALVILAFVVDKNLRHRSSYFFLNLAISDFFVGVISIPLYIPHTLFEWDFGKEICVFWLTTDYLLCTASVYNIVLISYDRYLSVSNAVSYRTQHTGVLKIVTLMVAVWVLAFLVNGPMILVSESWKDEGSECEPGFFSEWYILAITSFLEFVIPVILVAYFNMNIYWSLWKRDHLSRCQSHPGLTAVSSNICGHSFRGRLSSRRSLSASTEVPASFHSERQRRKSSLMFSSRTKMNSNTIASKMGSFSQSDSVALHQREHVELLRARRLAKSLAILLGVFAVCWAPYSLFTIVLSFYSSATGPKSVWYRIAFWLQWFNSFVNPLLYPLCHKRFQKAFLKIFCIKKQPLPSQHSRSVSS

[4] = tested on: inflammatory cells such as mast cells and eosinophils; conditions: cited from earlier work

Compound: 1-(8-bromopyrido[2,3-e][1,2,4]triazolo[4,3-a]pyrazin-4-yl)-N-methylazetidin-3-amine ethyl sulfate
- pH in aqueous environment [1]: more neutral
- Stability towards hydrolysis [1]: much more stable
- Solubility ([2]; solvent 1,3-dimethyl-2-imidazolidinone, ethyl sulfate form A): 17000 µg/mL
- Solubility ([2]; solvent 1-propanol, ethyl sulfate form A): 37 µg/mL
- Solubility ([2]; solvent 2-propanol, ethyl sulfate form A): 4.7 µg/mL
- Solubility ([2]; solvent Acetone, ethyl sulfate form A): 6.2 µg/mL
- Solubility ([2]; solvent Acetonitrile, ethyl sulfate form A): 45 µg/mL
- Solubility ([2]; solvent Cyclohexane, ethyl sulfate form A): <3.5 µg/mL
- Solubility ([2]; solvent DCM, ethyl sulfate form A): <3.5 µg/mL
- Solubility ([2]; solvent DMF, ethyl sulfate form A): 5900 µg/mL
- Solubility ([2]; solvent DMSO, ethyl sulfate form A): 76000 µg/mL
- Solubility ([2]; solvent EtOAc, ethyl sulfate form A): <3.5 µg/mL
- Solubility ([2]; solvent EtOH, ethyl sulfate form A): 120 µg/mL
- Solubility ([2]; solvent Isoamyl alcohol, ethyl sulfate form A): 23 µg/mL
- Solubility ([2]; solvent MTBE, ethyl sulfate form A): <3.5 µg/mL
- Solubility ([2]; solvent MeOH, ethyl sulfate form A): 1600 µg/mL
- Solubility ([2]; solvent Methyl ethyl ketone, ethyl sulfate form A): 200 µg/mL
- Solubility ([2]; solvent Toluene, ethyl sulfate form A): <3.5 µg/mL

Compound: 1-(8-bromopyrido[2,3-e][1,2,4]triazolo[4,3-a]pyrazin-4-yl)-N-methylazetidin-3-amine methyl sulfate
- pH in aqueous environment [1]: more neutral
- Stability towards hydrolysis [1]: much more stable
- Solubility (in words) ([2]; in 1-propanol acetonitrile and ethanol): intermediate
- Solubility (in words) ([2]; in 1-propanol:H2O (1:5) and DMSO): very high
- Solubility (in words) ([2]; in THF, EtOAC, Toluene, MTBE and methyl ethyl ketone): very low
- Solubility (in words) ([2]; in a number of solvents): relatively high
- Solubility (in words) ([2]; in isoamyl alcohol and 2-propanol): low
- Solubility (in words) ([2]; in methanol and DMF): high
- Solubility ([2]; solvent 1-propanol/H2O (1:5), solid form A + B): 44000 µg/mL
- Solubility ([2]; solvent 1-propanol, solid form B): 50 µg/mL
- Solubility ([2]; solvent 2-propanol, solid form A + B): 16 µg/mL
- Solubility ([2]; solvent Acetone, solid form B): <3 µg/mL
- Solubility ([2]; solvent Acetonitrile, solid form B): 55 µg/mL
- Solubility ([2]; solvent DMF, solid form B): 8200 µg/mL
- Solubility ([2]; solvent DMSO, solid form A + C): >/=69000 μg/ml
- Solubility ([2]; solvent EtOAc, solid form B): <3 µg/mL
- Solubility ([2]; solvent EtOH, solid form B): 110 µg/mL
- Solubility ([2]; solvent Isoamyl alcohol, solid form A + B): 6.3 µg/mL
- Solubility ([2]; solvent MTBE, solid form A + B): <3 µg/mL
- Solubility ([2]; solvent MeOH, solid form B): 1600 µg/mL
- Solubility ([2]; solvent Methyl ethyl ketone, solid form B): <3 µg/mL
- Solubility ([2]; solvent THF, solid form B): <3 µg/mL
- Solubility ([2]; solvent Toluene, solid form A + B): <3 µg/mL

Compound: 1-(8-bromopyrido[2,3-e][1,2,4]triazolo[4,3-a]pyrazin-4-yl)-N-methylazetidin-3-amine methyl sulfate monohydrate [form A]
- Drying behaviour of crystal lattice ([3]; freeze dryer or vacuum oven at 60° C.): without collapsing the crystal lattice
- Stability during gentle drying [3]: stable

Compound: CNC1CN(c2nc3ncc(Br)cc3n3cnnc23)C1 [1-(8-bromopyrido[2,3-e][1,2,4]triazolo[4,3-a]pyrazin-4-yl)-N-methylazetidin-3-amine]
- histamine 4 receptor inhibitory effect (histamine 4 receptor): strong
- effects against histamine induced infiltration of inflammatory cells [4]: suppressive effects

Compound: CNC1CN(c2nc3ncc(Br)cc3n3cnnc23)C1.COS(=O)(=O)O [Form B, 1-(8-bromopyrido[2,3-e][1,2,4]triazolo[4,3-a]pyrazin-4-yl)-N-methylazetidin-3-amine methyl sulfate anhydrate]
- Stability in water-containing environments ([3]; environments containing 60% water): stable
- Stability during gentle drying [3]: stable

Compound: CNC1CN(c2nc3ncc(Br)cc3n3cnnc23)C1.CS(=O)(=O)O [methane sulfonate salt, 1-(8-bromopyrido[2,3-e][1,2,4]triazolo[4,3-a]pyrazin-4-yl)-N-methylazetidin-3-amine methane sulfonate]
- pH in aqueous environment [1]: more neutral
- Stability towards hydrolysis [1]: much more stable
